# According to US11267795B2, “Crystalline PPAR-delta agonist” (Reneo Pharmaceuticals, Inc., priority 2020, dated 2022):
# Marks after values point to notes of the source that are not given here.
# Columns and labels:
# [1] = Stability of solid state forms under static storage, re-analysed by XRPD; type: physicochemical
# Description: Crystalline Form 1 of Compound II (4 g) was placed in a crystallization dish and stored in a stability chamber at 25° C./97% RH. XRPD analysis was regularly performed to verify the conversion to Form 2. Complete conversion was observed after 4 weeks at 25° C./97% RH.
# Samples were assessed for stability under ambient or static storage conditions of 25° C./97% RH and 40° C./75% RH for 7 or 10 days. The samples were then re-analyzed by XRPD.
# Results of the subsequent XRPD analysis for the crystalline forms are described in the following table: […]
# [2] = Stability of solid forms on drying, vacuum or standing (XRPD); type: physicochemical
# Description: Crystalline Hydrate Form 2 of Compound II was portioned into two and half was placed in the vacuum oven at RT. After 24 h the sample was analyzed by XRPD. Some small differences between the XRPD pattern and the Form 2 reference were noted. After 4 days in the vacuum oven complete conversion was observed.
# [3] = Variable temperature XRPD (heating); type: physicochemical; conditions: heating to 110° C.
# Description: For variable temperature (VT-XRPD) experiments the samples were prepared and analyzed in an Anton Paar chromed sample holder. A heating/cooling rate of 10° C./min was used with a 2 min isothermal hold before the measurement started. The measurement parameters are as per the standard screening data collection method (detailed above). Measurements were taken at the following temperatures: […]
# [4] = Gravimetric Vapor Sorption (GVS) with XRPD re-analysis; type: physicochemical; conditions: for Reversible Water Uptake between 0-90% RH: GVS, 25° C.; for Solid State Form After GVS (XRPD): after isotherm experiment at 90% RH and 25° C.
# Description: Sorption isotherms were obtained using a SMS DVS Intrinsic moisture sorption analyzer, controlled by DVS Intrinsic Control software. The sample temperature was maintained at 25° C. by the instrument controls. The humidity was controlled by mixing streams of dry and wet nitrogen, with a total flow rate of 200 ml/min. The relative humidity was measured by a calibrated Rotronic probe (dynamic range of 1.0-100% RH), located near the sample. The weight change, (mass relaxation) of the sample as a function of % RH was constantly monitored by a microbalance (accuracy ±0.005 mg).
# Typically, 5-30 mg of sample was placed in a tared mesh stainless steel basket under ambient conditions. The sample was loaded and unloaded at 40% RH and 25° C. (typical room conditions). A moisture sorption isotherm was performed as outlined below (2 scans per complete cycle). The standard isotherm was performed at 25° C. at 10% RH intervals over a 0-90% RH range. Typically, a double cycle (4 scans) was carried out. Data analysis was carried out within Microsoft Excel using the DVS Analysis Suite.
# The method for SMS DVS Intrinsic experiments is outlined in the following table:
# Reversible water uptake for the crystalline forms and patterns as determined by Gravimetric Vapor Sorption (GVS) are as described in the following table:
# The samples were recovered after completion of the isotherm experiment at […] and 25° C. and re-analyzed by XRPD.
# mice = conditions: cited from earlier work
solid form stability on drying [2],solid state form by XRPD after storage ([1]; 25° C./97% RH/7 days),solid state form by XRPD after storage ([1]; 40° C./75% RH/7 days),Reversible Water Uptake between 0-90% RH [4],Solid State Form After GVS (XRPD) [4],Compound,also measured
converts to Form 1,–,–,–,–,"Cc1cc(OC/C=C(/c2ccc(F)cc2)c2ccc(C#CCN3CCOCC3)cc2)ccc1OCC(=O)[O-].[Na+] [Pattern 8, sodium (E)-2-(4-((3-(4-fluorophenyl)-3-(4-(3-morpholinoprop-1-yn-1-yl)phenyl)allyl)oxy)-2-methylphenoxy)acetate]",–
–,–,–,~27%,Unchanged (Pattern 9),"Cc1cc(OC/C=C(/c2ccc(F)cc2)c2ccc(C#CCN3CCOCC3)cc2)ccc1OCC(=O)[O-].[Na+] [Pattern 9, sodium (E)-2-(4-((3-(4-fluorophenyl)-3-(4-(3-morpholinoprop-1-yn-1-yl)phenyl)allyl)oxy)-2-methylphenoxy)acetate]",–

# Continued, molecule first:
Compound,solid form stability on drying [2],solid state form by XRPD after storage ([1]; 25° C./97% RH/7 days),solid state form by XRPD after storage ([1]; 40° C./75% RH/7 days),Reversible Water Uptake between 0-90% RH [4],Solid State Form After GVS (XRPD) [4],also measured
"Cc1cc(OC/C=C(/c2ccc(F)cc2)c2ccc(C#CCN3CCOCC3)cc2)ccc1OCC(=O)[O-].[Na+] [amorphous, sodium (E)-2-(4-((3-(4-fluorophenyl)-3-(4-(3-morpholinoprop-1-yn-1-yl)phenyl)allyl)oxy)-2-methylphenoxy)acetate]",–,–,–,–,–,"change in XRPD after storage ([1]; ambient storage conditions for 24 hours, 48 hours, 7 days, or 10 days): no change; change in XRPD after storage ([1]; static storage of 40° C./75% RH for 10 days): no change"
"Cc1cc(OC/C=C(/c2ccc(F)cc2)c2ccc(C#CCN3CCOCC3)cc2)ccc1OCC(=O)[O-].[Na+] [Form 4, sodium (E)-2-(4-((3-(4-fluorophenyl)-3-(4-(3-morpholinoprop-1-yn-1-yl)phenyl)allyl)oxy)-2-methylphenoxy)acetate]",–,Form 2,Form 1,~23%,Form 2,XRPD after heating [3]: unchanged XRPD
Cc1cc(SCc2sc(-c3ccc(C(F)(F)F)cc3)nc2C)ccc1OCC(=O)O [GW1516],–,–,–,–,–,"energy substrate usage (mice; 8 weeks treatment): a clear shift in energy substrate usage from glucose to fatty acid oxidation; physical performance (mice; in combination with exercise, 4 weeks): enhanced physical performance"
"Cc1cc(OC/C=C(/c2ccc(F)cc2)c2ccc(C#CCN3CCOCC3)cc2)ccc1OCC(=O)[O-].[Na+] [Form 2, sodium (E)-2-(4-((3-(4-fluorophenyl)-3-(4-(3-morpholinoprop-1-yn-1-yl)phenyl)allyl)oxy)-2-methylphenoxy)acetate]",–,Unchanged (Form 2),Unchanged (Form 2),~25%,Unchanged (Form 2),time to complete conversion to Pattern 9 ([2]; vacuum oven at RT): 4 days
"Cc1cc(OC/C=C(/c2ccc(F)cc2)c2ccc(C#CCN3CCOCC3)cc2)ccc1OCC(=O)[O-].[Na+] [Form 1, sodium (E)-2-(4-((3-(4-fluorophenyl)-3-(4-(3-morpholinoprop-1-yn-1-yl)phenyl)allyl)oxy)-2-methylphenoxy)acetate]",–,Form 2,Unchanged (Form 1),~13.0% †,Unchanged (Form 1),"time to complete conversion to Form 2 ([1]; stability chamber at 25° C./97% RH, 4 g): 4 weeks"
"Cc1cc(OC/C=C(/c2ccc(F)cc2)c2ccc(C#CCN3CCOCC3)cc2)ccc1OCC(=O)[O-].[Na+] [Form 3, sodium (E)-2-(4-((3-(4-fluorophenyl)-3-(4-(3-morpholinoprop-1-yn-1-yl)phenyl)allyl)oxy)-2-methylphenoxy)acetate]",converts to Form 1,–,Form 1,~9.0%,Form 1,solid form stability on standing ([2]; standing in ambient conditions): converts to Form 1
"Cc1cc(OC/C=C(/c2ccc(F)cc2)c2ccc(C#CCN3CCOCC3)cc2)ccc1OCC(=O)[O-].[Na+] [Form 5, sodium (E)-2-(4-((3-(4-fluorophenyl)-3-(4-(3-morpholinoprop-1-yn-1-yl)phenyl)allyl)oxy)-2-methylphenoxy)acetate]",converts to Form 1,–,–,~11%,Form 1,–
"Cc1cc(OC/C=C(/c2ccc(F)cc2)c2ccc(C#CCN3CCOCC3)cc2)ccc1OCC(=O)[O-].[Na+] [Pattern 5, sodium (E)-2-(4-((3-(4-fluorophenyl)-3-(4-(3-morpholinoprop-1-yn-1-yl)phenyl)allyl)oxy)-2-methylphenoxy)acetate]",–,–,–,–,–,solid form stability [2]: unstable
